Results on 28 compounds are retold here after ChEMBL document CHEMBL4342516, “Discovery of Membrane-Bound Pyrophosphatase Inhibitors Derived from an Isoxazole Fragment” (ACS Med Chem Lett, 2020).

The nature of experiment [1]: Inhibition of Thermotoga maritima membrane bound pyrophosphatase at 100 uM using sodium pyrophosphate as substrate preincubated for 5 mins followed by substrate addition and measured after 5 mins by spectrophotometry.
A further experiment concerns Thermotoga maritima. Description: Inhibition of Thermotoga maritima membrane bound pyrophosphatase at 100 uM using sodium pyrophosphate as substrate preincubated for 5 mins followed by substrate addition and measured after 5 mins by spectrophotometry relative to control.
Experiment [2] deals with Plasmodium falciparum. Put plainly: (§1) Inhibition of Plasmodium falciparum 3D7 pyrophosphatase-VP1 expressed in baculovirus infected insect cells using sodium pyrophosphate as substrate preincubated for 5 mins followed by substrate addition and measured after 10 mins by spectrophotometry.
The nature of experiment [3]: as §1.
In experiment [4] the test system is Plasmodium falciparum. Put plainly: Antiplasmodial activity against Plasmodium falciparum 3D7 infected in human erythrocytes assessed as growth inhibition after 72 hrs by SYBR Gren-I fluorescent dye based method. Particulars: 3D7, 72 h. Format: functional, organism-based.

Activity calls are given as the source filed them. No cut-off for these calls is given here.

Usually IC50 stands for the concentration that inhibits the measured activity by half. `O=C(O)c1cc(-c2ccccc2)n[nH]1`: in experiment [1] (read-out: IC50), the IC50 came out at 130 µM. The same measure, in the same setting: the result for `CC(C)(C)c1cc(C(=O)Nc2ccccc2Br)cc(C(C)(C)C)c1` reads 47 µM. A word on the inhibition: it is the drop in the measured response relative to a control, in per cent. In the experiment with Thermotoga maritima, `CCOC(=O)c1ccc(S(=O)(=O)NC2=NC(=O)CS2)cc1` had an inhibition greater than 50%. The IC50 in experiment [1] (read-out: IC50) stood at 120 µM.

On to `CC(C)(C)c1cc(C(=O)NCC(=O)O)cc(C(C)(C)C)c1`, for which, in experiment [1], the IC50 entry is recorded as “Not Active”. Regarding `CC(C)(C)c1cc(C(=O)Nc2nc3ccccc3s2)cc(C(C)(C)C)c1`, the IC50 in experiment [1] (read-out: IC50) came out at 91 µM. The same measure, in the same setting: the result for `CC(C)(C)c1cc(C(=O)NCCCn2ccnc2)cc(C(C)(C)C)c1` reads 210 µM. For `CC(C)(C)c1cc(-c2cc(C(=O)Oc3ccccc3Br)no2)cc(C(C)(C)C)c1`, the half-maximal inhibitory concentration (IC50) in experiment [1] (read-out: IC50) is 10 µM. The inhibition entry in the experiment on Plasmodium falciparum [2] is “inactive”.

Consider `CC(C)(C)c1cc(C(=O)Nc2ccc([N+](=O)[O-])cc2)cc(C(C)(C)C)c1`, for which, in experiment [1] (read-out: IC50), the IC50 was found to be 100 µM. The same measure, in the same setting: next, `Cc1nc(-c2cc(C(=O)Oc3ccccc3Br)no2)cs1`: 460 µM. Take `Nc1ccc(S(=O)(=O)N2CCCC2C(=O)O)cc1` (stereo not given): in the experiment with Thermotoga maritima, the inhibition was greater than 50%. In experiment [1] (read-out: IC50), the IC50 is 110 µM. For `O=C(O)c1cc(-c2ccc([N+](=O)[O-])cc2)[nH]n1`, in experiment [1], the IC50 entry is listed as “Not Active”. Turning to `O=C(O)c1cnc(-c2ccccc2)s1`, in experiment [1] (read-out: IC50), the IC50 was determined as 29 µM. Compound `O=C(O)c1cc(-c2ccccc2[N+](=O)[O-])on1` yielded an inhibition in the experiment on Thermotoga maritima greater than 50%. The IC50 in experiment [1] (read-out: IC50) was determined as 71 µM. With `CC(C)(C)c1cc(CCC(=O)O)cc(C(C)(C)C)c1`, the IC50 result in experiment [1] is reported as “Not Active”. As for `Cc1cccc(-c2cc(C(=O)Oc3ccccc3Br)no2)c1`, the IC50 in experiment [1] (read-out: IC50) stood at 6.1 µM. Consider `Cc1cc(C)cc(-c2cc(C(=O)Nc3ccccc3Br)no2)c1`, for which the IC50 result in experiment [1] is listed as “Not Active”. As to `O=C(Oc1ccccc1Br)c1cnc(-c2ccccc2)s1`, the IC50 in experiment [1] (read-out: IC50) was determined as 48 µM.

`O=c1[nH]c2ccc(S(=O)(=O)CCO)cc2o1` returned an inhibition in the experiment with Thermotoga maritima greater than 50%. For the same compound, the IC50 in experiment [1] (read-out: IC50) came to 43 µM. As for `Cc1cc(C)cc(-c2cc(C(=O)Oc3ccccc3)no2)c1`, the IC50 in experiment [1] (read-out: IC50) amounted to 26 µM. On the same count and under the same terms, next, `CC(C)(C)c1cccc(-c2cc(C(=O)Oc3ccccc3Br)no2)c1`: 6.7 µM.

For the compound `Cc1c(-c2cc(C(=O)O)no2)cnn1C`, the IC50 entry in experiment [1] was “Not Active”. For the compound `O=C(O)c1csc(-c2ccc([N+](=O)[O-])cc2)n1`, in experiment [1] (read-out: IC50), the IC50 stood at 80 µM.

Regarding `CCOC(=O)c1cc(-c2ccc(OC)c(S(=O)(=O)Nc3cccc4c3OCO4)c2)on1`, the IC50 in experiment [1] (read-out: IC50) was found to be 36 µM.

As for `Cc1nc(-c2cc(C(=O)O)no2)cs1`, the IC50 in experiment [1] (read-out: IC50) amounted to 17 µM.

For `CC(C)(C)c1cc(C(=O)Nc2nccs2)cc(C(C)(C)C)c1`, in experiment [1] (read-out: IC50), the concentration for half-maximal inhibition (IC50) was 39 µM.

In the case of `CC(C)(C)c1cc(C(=O)Nc2ccc(S(N)(=O)=O)cc2)cc(C(C)(C)C)c1`, the IC50 in experiment [1] (read-out: IC50) came out at 47 µM. Regarding `Cc1cc(C)cc(-c2cc(C(=O)Oc3ccccc3Br)no2)c1`, the IC50 was determined as 6.9 µM in experiment [1] (read-out: IC50), 55 µM in experiment [3] and 99 µM in the experiment on Plasmodium falciparum [4]. On to `CCOC(=O)c1cc(-c2cc(C(C)(C)C)cc(C(C)(C)C)c2)on1`, for which the IC50 in experiment [1] (read-out: IC50) came to 72 µM.
